SMILES | glass transition temperature [°C]
*COC(=O)OCC1OC(OCC)OC1* (repeat unit) | 23.50
*c1cccc(C(c2ccccc2)(c2cccc(N3C(=O)c4ccc(Oc5ccc6c(c5)C(=O)N(*)C6=O)cc4C3=O)c2)C(F)(F)F)c1 (repeat unit) | 293.00
*CCOC(=O)NNC(=O)CCCCCCCCC(=O)NNC(=O)O* (repeat unit) | 63.00
*c1cccc(-c2ccc3[nH]c(S(=O)(=O)c4nc5ccc(*)cc5[nH]4)nc3c2)c1 (repeat unit) | 290.00
*c1ccc(-c2sc(-c3cc(CCCC)c(*)s3)cc2CCCC)cc1 (repeat unit) | 122.30
*c1ccc(Oc2cc3ccccc3cc2Oc2ccc(N3C(=O)c4ccc(S(=O)(=O)c5ccc6c(c5)C(=O)N(*)C6=O)cc4C3=O)cc2)cc1 (repeat unit) | 275.00
*Oc1ccc(C2(c3ccc(Oc4ccc(C(=O)c5cccc(C(=O)c6ccc(*)cc6)c5)cc4)c(C)c3)CCC3CCCCC3C2)cc1C (repeat unit) | 185.00
*c1cc(C(C(=O)OC)C(=O)OC)c(*)s1 (repeat unit) | -20.10
*c1ccc(Cc2ccc(N3C(=O)c4ccc(Oc5ccc(C6(c7ccc(Oc8ccc9c(c8)C(=O)N(*)C9=O)cc7)CCCCCCCCCCC6)cc5)cc4C3=O)cc2)cc1 (repeat unit) | 240.00
*c1ccc(Oc2ccc(-c3ccc(Oc4ccc(-c5cnc6cc(-c7ccc8nc(*)cnc8c7)ccc6n5)cc4)cc3)cc2)cc1 (repeat unit) | 213.00
*c1ccc(Oc2ccccc2-n2c(=O)c3cc4c(=O)n(*)c(=O)c4cc3c2=O)cc1 (repeat unit) | 386.00
*CCN(CCOC(=O)Nc1ccc(C)c(NC(=O)O*)c1)c1ccc(/N=N/c2ccc(/N=N/c3cc(OC)c(/N=N/c4ccc([N+](=O)[O-])cc4)cc3OC)c(C)c2)cc1 (repeat unit) | 148.00
*c1ccc(-c2ccc(-c3nc4ccccc4c(-c4ccc(Oc5ccc(-c6c(-c7ccccc7)c(*)nc7ccccc67)cc5)cc4)c3-c3ccccc3)cc2)cc1 (repeat unit) | 345.00
*c1cc(C(=O)NCCCCCCCCCCCCCC)cc(N2C(=O)c3ccc(-c4ccc5c(c4)C(=O)N(*)C5=O)cc3C2=O)c1 (repeat unit) | 247.60
*CC(*)(CC(=O)OCCOCCOC)C(=O)OCCOCCOC (repeat unit) | -40.50
*C(=O)c1ccc2c(c1)C(=O)N(c1cccc(OP(=O)(Oc3cccc(N4C(=O)c5ccc(*)cc5C4=O)c3)c3ccccc3)c1)C2=O (repeat unit) | 176.50
*C(=O)Nc1ccc(Cc2ccc(N3C(=O)CC(N4C(=O)c5ccc(*)cc5C4=O)C3=O)cc2)cc1 (repeat unit) | 123.00
*CCCOC(=O)NNC(=O)CCCCCCCCC(=O)NNC(=O)O* (repeat unit) | 22.00
*c1ccc(NC(=O)c2cccc(C(=O)Nc3ccc(S(*)(=O)=O)cc3)c2)cc1 (repeat unit) | 78.00
*c1ccc(Oc2ccc(-c3cc(-c4ccccc4)c4cc(C5(c6ccc7nc(*)cc(-c8ccccc8)c7c6)c6ccccc6-c6ccccc65)ccc4n3)cc2)cc1 (repeat unit) | 315.00
*c1ccc2c(c1)C(=O)N(c1ccc(Cc3ccc(N4C(=O)c5ccc(C(C)(C)CCCCC(*)(C)C)cc5C4=O)cc3)cc1)C2=O (repeat unit) | 169.90

SMILES | glass transition temperature [°C]
*c1ccc(C(=O)Oc2ccc3ccc(OC(=O)c4ccc(N5C(=O)CC(SCCOCCSC6CC(=O)N(*)C6=O)C5=O)cc4)cc3c2)cc1 (repeat unit) | 160.00
*C(=O)OCCCCCCCCCOC(=O)c1ccc(N2C(=O)c3ccc(*)cc3C2=O)cc1 (repeat unit) | 62.00
*c1ccc(Oc2ccc(C(c3ccc(Oc4ccc(-c5cccc(*)n5)cc4C(F)(F)F)cc3)(C(F)(F)F)C(F)(F)F)cc2)c(C(F)(F)F)c1 (repeat unit) | 153.00
*c1ccc(Oc2ccc(C(=O)c3ccc(C(=O)c4ccc(Oc5ccc(-c6cc(*)[nH]n6)cc5)cc4)cc3)cc2)cc1 (repeat unit) | 235.00
*c1ccc(Oc2ccc(C(=O)c3ccc(Oc4ccc(N5C(=O)c6ccc(S(=O)(=O)c7ccc8c(c7)C(=O)N(*)C8=O)cc6C5=O)cc4)cc3)cc2)cc1 (repeat unit) | 275.50
*c1c(C)cc(Cc2cc(C)c(N3C(=O)c4cccc(Oc5ccc(C(C)(C)c6ccc(Oc7cccc8c7C(=O)N(*)C8=O)cc6)cc5)c4C3=O)c(C)c2)cc1C (repeat unit) | 223.00
*C(F)C(*)(F)OC(F)(F)F (repeat unit) | -10.00
*C(=O)c1ccccc1-c1ccccc1C(=O)N1CCN(*)CC1 (repeat unit) | 193.00
*Oc1ccc(CC(NC(=O)CCc2ccc(OC(=O)CCCCC(*)=O)cc2)C(=O)OCC(C)C)cc1 (repeat unit) | 56.00
*Oc1ccc(NC(=O)c2ccc(C(=O)Nc3ccc(Oc4ccc(C(c5ccc(*)cc5)(C(F)(F)F)C(F)(F)F)cc4)cc3)cc2)cc1 (repeat unit) | 243.00
*c1ccc2c(c1)C(=O)N(c1ccc(Oc3ccc(N4C(=O)c5ccc(C(*)O[Si](C)(C)C)cc5C4=O)cc3)cc1)C2=O (repeat unit) | 210.00
*c1ccc(Oc2ccc(C(=O)c3ccc(Oc4ccc(-c5c6c(c(*)c7ccccc57)C(=O)N(C)C6=O)cc4)cc3)cc2)cc1 (repeat unit) | 283.00
*NC(C)CC(*)=O (repeat unit) | 125.00
*c1ccc(Oc2ccc(C(c3ccc(Oc4ccc(N5C(=O)c6ccc(-c7ccc8c(c7)C(=O)N(*)C8=O)cc6C5=O)cc4C(F)(F)F)cc3)(C(F)(F)F)C(F)(F)F)cc2)c(C(F)(F)F)c1 (repeat unit) | 223.00
*c1ccc(Oc2ccc(-c3ccc(Oc4ccc(-c5nnc(*)c6c(-c7ccc(F)cc7)c(-c7ccc(F)cc7)c(-c7ccc(F)cc7)c(-c7ccc(F)cc7)c56)cc4)cc3)cc2)cc1 (repeat unit) | 320.00
*Oc1ccc(C(C)(C)c2ccc(OC(=O)SCCCSC(*)=O)cc2)cc1 (repeat unit) | 90.00
*c1cc(Br)c(-c2c(Br)cc(N3C(=O)c4ccc(-c5ccc6c(c5)C(=O)N(*)C6=O)cc4C3=O)cc2C(=O)OCCCCCCCCCCCCCCCC)c(C(=O)OCCCCCCCCCCCCCCCC)c1 (repeat unit) | 92.00
*Oc1ccc(C2(c3ccc(Oc4ccc(C(=O)c5cccc(-c6cccc(C(=O)c7ccc(*)cc7)c6)c5)cc4)cc3)c3ccccc3-c3ccccc32)cc1 (repeat unit) | 212.00
*CC(=O)Nc1ccc(Oc2ccc(-c3ccc(Oc4ccc(NC(=O)CN5C(=O)c6ccc(C(c7ccc8c(c7)C(=O)N(*)C8=O)(C(F)(F)F)C(F)(F)F)cc6C5=O)cc4)cc3)cc2)cc1 (repeat unit) | 245.00
*CN1C(=O)c2ccc(C(c3ccc4c(c3)C(=O)N(Cc3nnc(-c5ccc(-c6nnc(*)o6)cc5)o3)C4=O)(C(F)(F)F)C(F)(F)F)cc2C1=O (repeat unit) | 214.00
*Oc1ccc(Sc2ccc(Sc3ccc(Sc4ccc(*)cc4)cc3)cc2)cc1 (repeat unit) | 84.00

Source: the PolyMetriX glass transition set
